# Values quoted from earlier work in patent publication US20130102635A1, “Methods for Treating Disorders Associated with Hyperlipidemia in a Mammal” (priority 2005, published 2013).
# Entries after “also recorded” stand apart in the source; their conditions may differ. Where two headings read alike, the source gives them in different places.
# Legend:
# [1] = animal model for homozygous FH, for example at 25 mg/day
# [2] = clinical studies, 80 mg/day or greater
SMILES,reduction of plasma cholesterol levels [1],"adverse events (patients, 25 mg/day BMS-201038)","adverse events (clinical studies, implitapide 80 mg/day or greater)",adverse events (implitapide 80 mg/day and 160 mg/day),therapeutic effectiveness [2]
"O=C(NC1CCN(CCCCC2(C(=O)NCC(F)(F)F)c3ccccc3-c3ccccc32)CC1)c1ccccc1-c1ccc(C(F)(F)F)cc1 [BMS-201038, N-(2,2,2-Trifluorethyl)-9-[4-[4-[[[4′-(trifluoromethyl)[1,1′biphenyl]-2-Yl]carbonyl]amino]-1-piperidinyl]butyl] 9H-fluorene-9-carboxamide]",effectively reduced plasma cholesterol levels in a dose dependent manner,"gastrointestinal disturbances, abnormalities in liver function, and hepatic steatosis; also recorded: gastrointestinal disorders, abnormalities in liver function and/or hepatic steatosis",–,–,–
"Cc1cc(C)c2c3ccccc3n(Cc3ccc([C@@H](C(=O)N[C@H](CO)c4ccccc4)C4CCCC4)cc3)c2n1 [implitapide, (2S)-2-cyclopentyl-2-[4-[(2,4-dimethyl-9H-pyrido[2,3-b]indol-9-yl)methyl]phenyl]-N-[(1S)-2-hydroxy-1-phenylethyl]ethanamide]",–,–,"gastrointestinal disturbances, abnormalities in liver function, and hepatic steatosis","gastrointestinal disorders, abnormalities in liver function and/or hepatic steatosis",therapeutically effective
